Assay results published in patent US20240390338A1, “METHODS FOR TREATING NEUROGENERATIVE DISEASES” (PTC THERAPEUTICS, INC., priority 2021, published 2024).

These compounds were tested on MAPT 3R mRNA (assay: RT-qPCR Assay to Quantify MAPT 3R mRNA in Cells). Conditions: cells incubated with compound 24 h; 7-point concentration curve; MAPT minigene 3R RT-qPCR with GAPDH assay; EC2X interpolated from dose response curve.
Assay type: cell-based
Experimental: RT-qPCR Assay to Quantify MAPT 3R mRNA in Cells
Test compounds were serially diluted 3.16-fold in 100% DMSO to generate a 7-point concentration curve. Aliquots of 0.5 μL of diluted compounds were transferred to a 96-well flat bottom plate by a liquid handler. An aliquot of 0.5 μL DMSO was also transferred to separate wells and used as controls. Duplicate samples were set up for each compound concentration and for the DMSO control.
Cells were thawed and incubated in cell culture media (DMEM, 10% FBS, and 1% antibiotic cocktail) for 72 h. Cells were trypsinized, counted, and re-suspended to a concentration of 200,000 cells/mL in cell culture media. A 100 μL aliquot of the cell suspensions were plated at 20,000 cells per well in the compound containing 96 well microtiter plate and incubated for in a cell culture incubator (37° C., 5% CO2, 100% relative humidity).
After 24 h, media was aspirated from the cells and 20 μL of the RCL2 lysis buffer (10 mM Tris-HCL pH 7.4, 150 mM NaCl, 0.33% IGEPAL® CA-630) was added to each well and incubated at RT for 1 min. Chilled nuclease free water (140 μL per well) was added and the plates were immediately transferred on ice. After 1 min on ice, plates were frozen at −80° C. overnight.
Preparation of RT-qPCR Reaction Mixture:
An aliquot of 4 μL/well of the cell lysates was transferred using the liquid handler to the Armadillo 384-Well PCR plate containing 6 μL/well of the RT-qPCR reaction mixture that was prepared as detailed above. The plates were then sealed with MicroAmp™ Optical Adhesive Film followed by spinning down for 1 min and placed in the CFX384 thermocycler (BioRad).
The RT-qPCR was carried out at the following temperatures for the indicated time: • Step 1: 48° C. (30 min) • Step 2: 95° C. (10 min) • Step 3: 95° C. (15 sec) • Step 4: 60° C. (1 min); then, repeated Steps 3 and 4 for a total of 40 cycles.
The percent exon 4 skipping was calculated for each dose of compound treatment using Equations 1 and 2.
Data were fit to a dose response curve and the EC2X was interpolated using XLfit® statistical and curve fitting package.
An EC2X value between >1000 nM and ≤1500 nM is indicated by two stars (**). An EC2X value between >500 nM and ≤1000 nM is indicated by three stars (***). An EC2X value between >50 nM and ≤500 nM is indicated by four stars (****). An EC2X value ≤50 nM is indicated by five stars (*****).

Structure (SMILES) | EC (2-fold increase) [µM]
N[C@@H](CCF)Cc1sc2c(NCc3ccco3)cc(Cl)nc2c1Br [Cpd 97, 2-[(2S)-2-amino-4-fluorobutyl]-3-bromo-5-chloro-N-[(furan-2-yl)methyl]thieno[3,2-b]pyridin-7-amine] | ≤ 0.05
N#CC[C@H](N)Cc1sc2c(NCc3ccco3)cc(Cl)nc2c1Br [Cpd 103, (3S)-3-amino-4-(3-bromo-5-chloro-7-{[(furan-2-yl)methyl]amino}thieno[3,2-b]pyridin-2-yl)butanenitrile] | 0.05 to 0.5
CSC[C@H](N)Cc1sc2c(NCc3ccco3)cc(Cl)nc2c1C [Cpd 104, 2-[(2R)-2-amino-3-(methylsulfanyl)propyl]-5-chloro-N-[(furan-2-yl)methyl]-3-methylthieno[3,2-b]pyridin-7-amine] | ≤ 0.05
Cc1c(C[C@@H](N)CC#N)sc2c(NCc3cccs3)cc(Cl)nc12 [Cpd 105, (3S)-3-amino-4-(5-chloro-3-methyl-7-{[(thiophen-2-yl)methyl]amino}thieno[3,2-b]pyridin-2-yl)butanenitrile] | 0.05 to 0.5
N#CC[C@H](N)Cc1sc2c(NCc3cccs3)cc(Cl)nc2c1Cl [Cpd 106, (3S)-3-amino-4-(3,5-dichloro-7-{[(thiophen-2-yl)methyl]amino}thieno[3,2-b]pyridin-2-yl)butanenitrile] | 0.05 to 0.5
N[C@H](Cc1sc2c(NCc3cccs3)cc(Cl)nc2c1Br)CC(F)F [Cpd 107, 2-[(2S)-2-amino-4,4-difluorobutyl]-3-bromo-5-chloro-N-[(thiophen-2-yl)methyl]thieno[3,2-b]pyridin-7-amine] | 0.05 to 0.5
Cc1c(C[C@@H](N)CS(C)(=O)=O)sc2c(NCc3ccco3)cc(Cl)nc12 [Cpd 108, 2-[(2R)-2-amino-3-(methanesulfonyl)propyl]-5-chloro-N-[(furan-2-yl)methyl]-3-methylthieno[3,2-b]pyridin-7-amine] | 0.05 to 0.5
C[C@H](N)Cc1sc2c(NCc3ccco3)cc(Cl)nc2c1C#N [Cpd 109, 2-[(2S)-2-aminopropyl]-5-chloro-7-{[(furan-2-yl)methyl]amino}thieno[3,2-b]pyridine-3-carbonitrile] | ≤ 0.05
CS(=O)(=O)C[C@H](N)Cc1sc2c(NCc3ccco3)cc(Cl)nc2c1Cl [Cpd 113, 2-[(2R)-2-amino-3-(methanesulfonyl)propyl]-3,5-dichloro-N-[(furan-2-yl)methyl]thieno[3,2-b]pyridin-7-amine] | 0.05 to 0.5
CSC[C@H](N)Cc1sc2c(NCc3ccco3)cc(Cl)nc2c1Cl [Cpd 114, 2-[(2R)-2-amino-3-(methylsulfanyl)propyl]-3,5-dichloro-N-[(furan-2-yl)methyl]thieno[3,2-b]pyridin-7-amine] | ≤ 0.05
Cc1c(C[C@@H](N)C(=O)O)sc2c(NCc3ccco3)cc(Cl)nc12 [Cpd 115, 3-(5-chloro-7-{[(furan-2-yl)methyl]amino}-3-methylthieno[3,2-b]pyridin-2-yl)-D-alanine] | ≤ 0.05
Cc1c(C[C@@H](N)C(=O)N(C)C)sc2c(NCc3ccco3)cc(Cl)nc12 [Cpd 116, 3-(5-chloro-7-{[(furan-2-yl)methyl]amino}-3-methylthieno[3,2-b]pyridin-2-yl)-N,N-dimethyl-D-alaninamide] | 0.05 to 0.5
CS(=O)(=O)C[C@H](N)Cc1sc2c(NCc3ccco3)cc(Cl)nc2c1Br [Cpd 117, 2-[(2R)-2-amino-3-(methanesulfonyl)propyl]-3-bromo-5-chloro-N-[(furan-2-yl)methyl]thieno[3,2-b]pyridin-7-amine] | 0.05 to 0.5
CSC[C@H](N)Cc1sc2c(NCc3ccco3)cc(Cl)nc2c1Br [Cpd 118, 2-[(2R)-2-amino-3-(methylsulfanyl)propyl]-3-bromo-5-chloro-N-[(furan-2-yl)methyl]thieno[3,2-b]pyridin-7-amine] | ≤ 0.05
N[C@H](Cc1sc2c(NCc3ccco3)cc(Cl)nc2c1Cl)C(=O)Nc1ccccc1F [Cpd 120, 3-(3,5-dichloro-7-{[(furan-2-yl)methyl]amino}thieno[3,2-b]pyridin-2-yl)-N-(2-fluorophenyl)-D-alaninamide] | 0.05 to 0.5
